36 compounds from a melting point compilation (Tetko et al.; mined from patent text by program, amines drawn as free bases though some values may be those of a salt) can be followed below.

As usually defined, the melting point is the temperature, or range, at which the solid turns liquid. Compound `CCc1nc2c(cnn2CC)c(NC2CCOCC2)c1CNC(=O)c1cccc(C(=O)NCc2ccc(F)c(-c3cccc(CN4CCNC(=O)C4)c3)c2)c1` showed a melting point of 147 to 150 °C.

Compound `COC(=O)c1ccc(C(=O)N(C)c2ccccc2)cc1` returned a melting point of 78 to 80 °C.

For `COC(=O)CCCCCCNC(=O)C(CSC(C)=O)Cc1ccccc1` (stereo unspecified), the melting point lay within 84 to 85 °C.

As to `COc1cc(NCCCCCCN2CCN(c3ccccn3)CC2)c2nccc(C)c2c1`, the melting point is 78 to 81 °C.

The compound `Cc1ccc(CC(=O)NC(NC(=NC#N)Nc2cccnc2C)C(C)(C)C)cc1F` (stereo unspecified) displayed a melting point of 75 to 77 °C.

Compound `NC(C(=O)O)c1c(C(=O)O)csc1-c1ccccc1` (stereo unspecified) returned a melting point of 266 to 271 °C.

The compound `CC(C)C[C@@H](OC(=O)c1cccnc1)C(=O)O` gave a melting point of 101 to 103 °C.

In turn, `CN1CCN(c2ccc3[nH]c(=O)oc(=O)c3c2)CC1` had a melting point of 285 °C.

In turn, `O=C(O)Cn1cnnn1` had a melting point of 125 to 127 °C.

Compound `OC(c1cccc(F)c1)(c1cccc(F)c1)C1CCNCC1` showed a melting point of 117 to 118 °C.

`CC(=O)NC[C@H]1CN(c2ccc3c(c2)C[C@@H](C)N3C=O)C(=O)O1` came in with a melting point of 158 to 159 °C.

Compound `CNCC(=O)N1c2ccccc2N2CCc3cccc(c32)C1C` (stereo unspecified) displayed a melting point of 106 to 110 °C.

`CN1CC(CCN2CCN(c3cccc(F)c3)CC2)OC1=O` (stereo unspecified): the melting point was in the range of 92 to 93 °C.

In turn, `CC(C)(C)OC(=O)NCC(=O)c1ccccc1` came in with a melting point of 63 to 65 °C.

As to `CN(C)CCN1C(=O)C(NC(=O)CCc2ccc(Cl)cc2Cl)N=C(c2ccccc2)c2ccccc21` (stereo unspecified), the melting point lay within 199 to 201 °C.

`CCCCCCCC(=O)OC(C)OC1=C(C(=O)Nc2ccccn2)N(C)S(=O)(=O)c2ccccc21` (stereo unspecified) registered a melting point of 90 to 91 °C.

Take `O=C1NC(=O)C(=Cc2ccccc2)S1`: the melting point was 246 to 248 °C.

In turn, `CC(C)(C)C(=O)Nc1nc(O)c2cc(C#Cc3ccc(C(=O)O)cc3)cnc2n1` came in with a melting point above 250 °C.

Compound `CC(=O)Oc1ccc(C=C2SC(=O)NC2=O)cc1` showed a melting point of 238 to 240 °C.

On to `N#CC(Cc1ccccc1)C(=O)O` (stereo unspecified), for which the melting point was determined as 97 °C.

In turn, `CONc1nc(N)nc2c1ncn2[C@@H]1C[C@H](CO)[C@@H](O)[C@H]1O` came in with a melting point of 106 to 110 °C.

Consider `CCCCOc1ncc(C(C)O)cc1-c1nc2c(CC)n(C3CN(CC)C3)nc2c(=O)[nH]1` (stereo unspecified), for which the melting point is 117 to 119 °C.

For the compound `Cc1oc(-c2ccccc2)nc1CCOc1ccc(CCC#N)cc1`, the melting point lay in the range of 109 to 110 °C.

In turn, `N#Cc1cc(NC(=O)c2cc3ccccc3s2)ccc1N1CCC(CCO)CC1` had a melting point of 218 °C.

The compound `C[C@@H](O[C@H]1CCCN(Cc2n[nH]c(=O)[nH]2)[C@H]1c1ccccc1)c1cccc(Cl)c1` yielded a melting point of 164 to 165 °C.

Take `CC(=O)OC1CSC(Oc2cccc(-c3cc(C)ccn3)c2)C(OC(C)=O)C1OC(C)=O` (stereo unspecified): the melting point was 116 °C.

Turning to `CCOC(=O)N1CCC2(CC1)N=C(N)c1c(F)cccc1O2`, the melting point is 114 to 116 °C.

With `CC(=O)Nc1nn(C)c2c1sc1cc(C)ccc12`, the melting point fell in the range of 253 to 255 °C.

With `CCCc1c(OCc2c(CCCCc3cccnc3)ccc(C(N)=O)c2OCC)ccc(C(C)=O)c1O`, the melting point was in the range of 107 to 109 °C.

Consider `CC1(CC(=O)O)SCCC2=C1Cc1ccccc12` (stereo unspecified), for which the melting point lay in the range of 119 to 121 °C.

As to `O=Cc1cccc(OCC(O)CN2C(=O)c3ccccc3C2=O)c1` (stereo unspecified), the melting point is 122 to 126 °C.

`CCOCCOc1ccc2c(c1)C(CNS(=O)(=O)CC)CC(C)(C)O2` (stereo unspecified) registered a melting point of 70 to 72 °C.

For `CC(=O)c1cccc2cc3cccc(C(C)=O)c3cc12`, the melting point is 178 to 181 °C.

Take `O=C(O)C(=O)CC(=O)c1cccn1CCc1ccccc1`: the melting point was in the range of 168 to 170 °C.

Compound `CC1(C)OC(=O)Nc2ccc(-c3ccc(F)c(C#N)c3)cc21` registered a melting point of 255 to 256 °C.

In turn, `CCCCCCC(C)(C)c1cc(O)c2c(c1)OC(C)(C)CC2C(=O)O` (stereo unspecified) gave a melting point of 147 to 148 °C.
